# Source: patent US7700638B2, “1,5,7-trisubstituted benzimidazole derivatives and their use for modulating the GABAA receptor complex” (N. V. Organon, priority 2003, dated 2010)
# Counter-ions that a name gives are not always drawn.
# Target: GABA recognition site and the benzodiazepine modulatory unit (GABAA receptor complex), cerebral cortex membranes
# Test: In vitro inhibition of 3H-flunitrazepam (3H-FNM) binding
# Parameters: species or system rat
# Conditions: inhibition of specific binding of 3H-FNM (1 nM), cerebral cortex membranes from male Wistar rats, 40 min at 2° C.
# Protocol: In vitro Inhibition of ^3H-flunitrazepam (^3H-FNM) Binding
# […] the benzodiazepine modulatory unit can selectively be labelled with ^3H-flunitrazepam.
# Preparations are performed at 0-4° C. unless otherwise indicated. Cerebral cortex from male Wistar rats (150-200 g) is homogenised for 5-10 sec in 20 ml […] (30 mM, pH 7.4) using an Ultra-Turrax homogeniser. The suspension is centrifuged at 27,000×g for 15 min and the pellet is washed three times with buffer (centrifuged at 27,000×g for 10 min). The washed pellet is homogenized in 20 ml of buffer and incubated on a water bath (37° C.) for 30 min to remove endogenous GABA and then centrifuged for 10 min at 27,000×g. The pellet is then homogenized in buffer and centrifuged for 10 min at 27,000×g. The final pellet is resuspended in 30 ml buffer and the preparation is frozen and stored at −20° C.
# The membrane preparation is thawed and centrifuged at 2° C. for 10 min at 27,000×g. The pellet is washed twice with 20 ml 50 mM Tris-citrate, pH 7.1 using an Ultra-Turrax homogeniser and centrifuged for 10 min at 27,000×g. The final pellet is resuspended in 50 mM Tris-citrate, pH 7.1 (500 ml buffer per g of original tissue), and then used for binding assays. Aliquots of 0.5 ml tissue are added to 25 μl of test solution and 25 μl of ^3H-FNM (1 nM, final concentration), mixed and incubated for 40 min at 2° C. Non-specific binding is determined using Clonazepam (1 μM, final concentration). After incubation the samples are added 5 ml of ice-cold buffer and poured directly onto Whatman GF/C glass fibre filters under suction and immediately washed with 5 ml ice-cold buffer. The amount of radioactivity on the filters is determined by conventional liquid scintillation counting. Specific binding is total binding minus non-specific binding.
# 25-75% inhibition of specific binding must be obtained, before calculation of an IC50.
# The test value will be given as IC50 (the concentration (μM) of the test substance which inhibits the specific binding of ^3H-FNM by 50%).
# Co is specific binding in control assays, and
# Cx is the specific binding in the test assay.
# (The calculations assume normal mass-action kinetics).
row,Compound,IC50
1,7-[1-(3-Dimethylamino)pyrrolidinyl]-1-phenyl-5-trifluoromethylbenzimidazole trifluoroacetic acid salt [Example 94],0.09 µM
2,"Nc1cccc(-c2cc(C=NO)cc3ncn(-c4ccccc4)c23)c1 [Example 6, 7-(3-Aminophenyl)-5-formyl-1-phenylbenzimidazole oxime]",0.0042 µM
3,"N#Cc1cccc(C=Nc2cc(C(F)(F)F)cc3ncn(-c4ccccc4)c23)c1 [Example 10, 7-(N-(3-cyanobenzylidene)amino)-1-phenyl-5-trifluoromethylbenzimidazole]",0.018 µM
4,"OCc1cccc(-c2cc(C(F)(F)F)cc3ncn(-c4ccccc4)c23)c1 [Example 12, 7-(3-(Hydroxymethyl)phenyl)-1-phenyl-5-trifluoromethylbenzimidazole]",0.03 µM
5,"COc1ccc(-c2cc(C#N)cc3ncn(-c4ccccc4)c23)cc1 [Example 23, 5-Cyano-7-(4-methoxyphenyl)-1-phenylbenzimidazole]",0.038 µM
6,"CCOC(=O)c1cc(-c2cccc(CN3CCN(C)CC3)c2)c2c(c1)ncn2-c1ccccc1 [Example 33, 5-Ethoxycarbonyl-7-(3-((1-methylpiperazin-4-yl)methyl)phenyl)-1-phenylbenzimidazole]",0.019 µM
7,"CCN(CC)Cc1ccc(-c2cc(C#N)cc3ncn(-c4ccccc4)c23)cc1 [Example 41, 5-Cyano-7-(4-diethylaminomethylphenyl)-1-phenylbenzimidazole trifluoroacetic acid salt]",0.027 µM
8,"OCc1cc(-c2cccc(OC(F)(F)F)c2)c2c(c1)ncn2-c1ccccc1 [Example 51, 5-(Hydroxymethyl)-1-phenyl-7-(3-trifluoromethoxyphenyl)benzimidazole]",0.012 µM
9,"COC(=O)C=Cc1cc(C(F)(F)F)cc2ncn(-c3ccccc3)c12 [Example 57, 3-(3-Phenyl-6-trifluoromethyl-3H-benzimidazol-4-yl)acrylic acid methyl ester]",0.046 µM
10,"CCN(CC)C(=O)C=Cc1cc(C(F)(F)F)cc2ncn(-c3ccccc3)c12 [Example 65, N,N-Diethyl-3-(3-phenyl-6-trifluoromethyl-3H-benzimidazol-4-yl)acrylamide]",0.02 µM
11,"FC(F)(F)c1cc(C#CCN2CCOCC2)c2c(c1)ncn2-c1ccccc1 [Example 80, 7-(3-(4-Morpholino)prop-1-ynyl)-1-phenyl-5-trifluoromethylbenzimidazole trifluoroacetic acid salt]",0.18 µM
12,"CCN(CC)C(=O)CCc1cc(C(F)(F)F)cc2ncn(-c3ccccc3)c12 [Example 81, N,N-Diethyl-3-(3-Phenyl-6-trifluoromethyl-3H-benzimidazol-4-yl)propionamide]",0.038 µM
13,"CN(CCC#N)CCCCc1cc(C(F)(F)F)cc2ncn(-c3ccccc3)c12 [Example 88, 7-(4-((N-(2-Cyanoethyl)-N-methyl)amino)-1-butyl)-1-phenyl-5-trifluoromethylbenzimidazole trifluoroacetic acid salt]",0.1 µM
14,"FC(F)(F)c1cc(C#CCN2CC=CCC2)c2c(c1)ncn2-c1ccccc1 [Example 92, 1-Phenyl-7-(3-(1-(1,2,3,6-tetrahydropyridinyl))prop-1-ynyl)-5-trifluoromethylbenzimidazole]",0.048 µM
